According to article PMC7377239, “Cardiovascular Effects of Polychlorinated Biphenyls and Their Major Metabolites” (Environmental Health Perspectives, 2020):
Read-outs that look alike come from different tables or passages of the source.

Test system: iCell cardiomyocytes (human iPSC-derived cardiomyocytes)
Experiment: Intracellular Ca2+ flux / beating parameters in iCell cardiomyocytes (FLIPR tetra), 90 min or 24 h
Assay type: cell-based
Conditions: Homo sapiens, Cardiomyocyte, 0.00 µM = 100.00; for activity at 0.1 µM: 0.10 µM
Method in brief: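 Gelatin-plated iCell cardiomyocytes (5,000/well) were dye-loaded for 2 h at 37 °C, then exposed for 90 min or 24 h to PCBs/metabolites (5× plates at 0.05–500 µM; 0.5% DMSO final) in triplicate. Ca2+ flux was read for 100 s at 8 Hz and 37 °C. Peak height, frequency, spacing CV and decay/rise ratio were vehicle-normalized and fitted with a four-parameter logistic model, with POD set at 1 SD of vehicle.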

[1] = 1.5 h, read-out: cm.amp.avg.90min
[2] = 1.5 h, read-out: cm.amp.cv.90min
[3] = 1.5 h, read-out: cm.decay.rise.90min
[4] = 1.5 h, read-out: cm.spacing.cv.90min
[5] = 24 h, read-out: cm.amp.avg.24hrs
[6] = 24 h, read-out: cm.amp.cv.24hrs
[7] = 24 h, read-out: cm.decay.rise.24hrs
[8] = 24 h, read-out: cm.spacing.cv.24hrs

`Clc1ccc(-c2ccccc2)cc1` [PCB3] showed an activity at 0.01 µM [1] of 98.5%, an activity at 0.01 µM [2] of 109% and an activity at 0.01 µM (1.5 h, read-out: cm.bpm.90min) of 95.3%. It also gave an activity at 0.01 µM [3] of 98.9%, an activity at 0.01 µM [4] of 124% and an activity at 0.1 µM [1] of 104%. It also gave an activity at 0.1 µM [2] of 102%, an activity at 0.1 µM (1.5 h, read-out: cm.bpm.90min) of 96.5% and an activity at 0.1 µM [3] of 99.5%. The activity at 0.1 µM [4] was 116%, the activity at 1 µM [1] was 99.9% and the activity at 1 µM [2] was 123%. For the same compound, the activity at 1 µM (1.5 h, read-out: cm.bpm.90min) was 96.5%, the activity at 1 µM [3] was 96.1% and the activity at 1 µM [4] was 130%. The activity at 10 µM [1] was 99.5%, the activity at 10 µM [2] was 115% and the activity at 10 µM (1.5 h, read-out: cm.bpm.90min) was 103%. The activity at 10 µM [3] was 98.8%, the activity at 10 µM [4] was 121% and the activity at 100 µM [1] was 81.2%. For the same compound, the activity at 100 µM [2] was 180%, the activity at 100 µM (1.5 h, read-out: cm.bpm.90min) was 193% and the activity at 100 µM [3] was 99.9%. It also gave an activity at 100 µM [4] of 133%, an activity at 0.01 µM [5] of 91.3% and an activity at 0.01 µM [6] of 119%. It also gave an activity at 0.01 µM (24 h, read-out: cm.bpm.24hrs) of 103%, an activity at 0.01 µM [7] of 98.3% and an activity at 0.01 µM [8] of 138%. It also gave an activity at 0.1 µM [5] of 87.1%, an activity at 0.1 µM [6] of 41.5% and an activity at 0.1 µM (24 h, read-out: cm.bpm.24hrs) of 52.5%. For the same compound, the activity at 0.1 µM [7] was 47.1%, the activity at 0.1 µM [8] was 61.2% and the activity at 1 µM [5] was 87.1%. It also gave an activity at 1 µM [6] of 146%, an activity at 1 µM (24 h, read-out: cm.bpm.24hrs) of 103% and an activity at 1 µM [7] of 104%. It also gave an activity at 1 µM [8] of 118%, an activity at 10 µM [5] of 110% and an activity at 10 µM [6] of 106%. The activity at 10 µM (24 h, read-out: cm.bpm.24hrs) was 110%, the activity at 10 µM [7] was 98.5% and the activity at 10 µM [8] was 128%. The activity at 100 µM [5] was 0%, the activity at 100 µM [6] was 0% and the activity at 100 µM (24 h, read-out: cm.bpm.24hrs) was 0%. It also gave an activity at 100 µM [7] of 0% and an activity at 100 µM [8] of 0%.

`Clc1cccc(-c2cccc(Cl)c2)c1` [PCB11] showed an activity at 0.01 µM [1] of 99.2%, an activity at 0.01 µM [2] of 103% and an activity at 0.01 µM (1.5 h, read-out: cm.bpm.90min) of 103%. It also gave an activity at 0.01 µM [3] of 101%, an activity at 0.01 µM [4] of 93.4% and an activity at 0.1 µM [1] of 102%. It also gave an activity at 0.1 µM [2] of 91.4%, an activity at 0.1 µM (1.5 h, read-out: cm.bpm.90min) of 103% and an activity at 0.1 µM [3] of 98.2%. The activity at 0.1 µM [4] was 89.8%, the activity at 1 µM [1] was 105% and the activity at 1 µM [2] was 97.9%. For the same compound, the activity at 1 µM (1.5 h, read-out: cm.bpm.90min) was 95.3%, the activity at 1 µM [3] was 99.6% and the activity at 1 µM [4] was 107%. It also gave an activity at 10 µM [1] of 94.8%, an activity at 10 µM [2] of 99.8% and an activity at 10 µM (1.5 h, read-out: cm.bpm.90min) of 114%. The activity at 10 µM [3] was 91.8%, the activity at 10 µM [4] was 101% and the activity at 100 µM [1] was 22.3%. For the same compound, the activity at 100 µM [2] was 139%, the activity at 100 µM (1.5 h, read-out: cm.bpm.90min) was 0% and the activity at 100 µM [3] was 54.6%. For the same compound, the activity at 100 µM [4] was 66.2%, the activity at 0.01 µM [5] was 137% and the activity at 0.01 µM [6] was 77.1%. For the same compound, the activity at 0.01 µM (24 h, read-out: cm.bpm.24hrs) was 108%, the activity at 0.01 µM [7] was 93.4% and the activity at 0.01 µM [8] was 127%. It also gave an activity at 0.1 µM [5] of 134%, an activity at 0.1 µM [6] of 69.8% and an activity at 0.1 µM (24 h, read-out: cm.bpm.24hrs) of 105%. For the same compound, the activity at 0.1 µM [7] was 98.1%, the activity at 0.1 µM [8] was 98.2% and the activity at 1 µM [5] was 130%. The activity at 1 µM [6] was 77.5%, the activity at 1 µM (24 h, read-out: cm.bpm.24hrs) was 93.6% and the activity at 1 µM [7] was 108%. The activity at 1 µM [8] was 92.8%, the activity at 10 µM [5] was 110% and the activity at 10 µM [6] was 90.8%. The activity at 10 µM (24 h, read-out: cm.bpm.24hrs) was 106%, the activity at 10 µM [7] was 111% and the activity at 10 µM [8] was 98.2%. It also gave an activity at 100 µM [5] of 0%, an activity at 100 µM [6] of 0% and an activity at 100 µM (24 h, read-out: cm.bpm.24hrs) of 0%. It also gave an activity at 100 µM [7] of 0% and an activity at 100 µM [8] of 0%.
